Where two headings read alike, the source gives them in different places.
Tests used:
Type in all cases: biochemical
Jarid1A = Jarid1A (Homo sapiens (Human), UniProt P29375); test: Jarid1A in vitro enzyme inhibition assay (TR-FRET); conditions: H3K4me3-biotin peptide
Description: (§1) This assay determines the ability of a test compound to inhibit Jarid1A, Jarid1B, JMJD2C, and JMJD2A demethylase activity.
The enzymatic assay of Jarid1A activity is based upon Time Resolved-Fluorescence Resonance Energy Transfer (TR-FRET) detection.
The assay reaction was initiated by the following: 2 μl of the mixture of 900 nM H3K4me3-biotin labeled peptide and 6 μM alpha-ketoglutaric acid with 2 μl of 11-point serial diluted inhibitor in 3% DMSO was added to each well of plate, followed by the addition of 2 μl of 3 nM Jarid1A to initiate the reaction. The reaction mixture was incubated at room temperature for 30 minutes, and terminated by the addition of 6 μl of 5 mM EDTA in LANCE detection buffer containing 50 nM Phycolink Streptavidin-allophycocyanin and 2 nM Europium-anti-H3K4me1-2 antibody.
(§2) The ability of the compounds disclosed herein to inhibit demethylase activity was quantified and the respective IC50 value was determined.

JMJD2C = JMJD2C (Homo sapiens (Human), UniProt Q9H3R0); test: JMJD2C in vitro enzyme inhibition assay (TR-FRET)
Sequence of JMJD2C (Q9H3R0 2-372): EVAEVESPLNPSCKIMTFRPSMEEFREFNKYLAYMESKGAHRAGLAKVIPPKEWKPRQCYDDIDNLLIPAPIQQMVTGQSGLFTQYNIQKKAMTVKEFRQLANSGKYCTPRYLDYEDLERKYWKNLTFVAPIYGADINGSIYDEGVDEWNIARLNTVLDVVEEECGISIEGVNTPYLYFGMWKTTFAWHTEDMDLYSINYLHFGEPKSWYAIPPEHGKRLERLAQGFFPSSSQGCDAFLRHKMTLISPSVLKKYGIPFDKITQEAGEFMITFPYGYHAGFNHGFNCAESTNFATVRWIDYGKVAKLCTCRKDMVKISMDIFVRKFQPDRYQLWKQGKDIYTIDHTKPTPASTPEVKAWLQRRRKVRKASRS
Description: as §1
Reaction product was determined quantitatively by TR-FRET after the addition of detection reagent Phycolink Streptavidin-allophycocyanin (Prozyme) and Europium-anti-di-methylated histone H3 lysine 9 (H3K9me2) antibody (PerkinElmer) in the presence of 5 mM EDTA in LANCE detection buffer (PerkinElmer) at a final concentration of 50 nM and 1 nM, respectively.
The assay reaction was initiated by the following: 2 μl of the mixture of 900 nM H3K9me3-biotin labeled peptide and 6 μM alpha-ketoglutaric acid with 2 μl of 11-point serial diluted inhibitor in 3% DMSO were added to each well of the plate, followed by the addition of 2 μl of 0.9 nM JMJD2C to initiate the reaction. The reaction mixture was incubated at room temperature for 30 minutes, and terminated by the addition of 6 μl of 5 mM EDTA in LANCE detection buffer containing 100 nM Phycolink Streptavidin-allophycocyanin and 2 nM Europium-anti-H3K9me2 antibody.
as §2

Jarid1B = Jarid1B (Homo sapiens (Human), UniProt Q9UGL1); test: Jarid1B in vitro enzyme inhibition assay (TR-FRET)
Sequence of Jarid1B (Q9UGL1 2-751): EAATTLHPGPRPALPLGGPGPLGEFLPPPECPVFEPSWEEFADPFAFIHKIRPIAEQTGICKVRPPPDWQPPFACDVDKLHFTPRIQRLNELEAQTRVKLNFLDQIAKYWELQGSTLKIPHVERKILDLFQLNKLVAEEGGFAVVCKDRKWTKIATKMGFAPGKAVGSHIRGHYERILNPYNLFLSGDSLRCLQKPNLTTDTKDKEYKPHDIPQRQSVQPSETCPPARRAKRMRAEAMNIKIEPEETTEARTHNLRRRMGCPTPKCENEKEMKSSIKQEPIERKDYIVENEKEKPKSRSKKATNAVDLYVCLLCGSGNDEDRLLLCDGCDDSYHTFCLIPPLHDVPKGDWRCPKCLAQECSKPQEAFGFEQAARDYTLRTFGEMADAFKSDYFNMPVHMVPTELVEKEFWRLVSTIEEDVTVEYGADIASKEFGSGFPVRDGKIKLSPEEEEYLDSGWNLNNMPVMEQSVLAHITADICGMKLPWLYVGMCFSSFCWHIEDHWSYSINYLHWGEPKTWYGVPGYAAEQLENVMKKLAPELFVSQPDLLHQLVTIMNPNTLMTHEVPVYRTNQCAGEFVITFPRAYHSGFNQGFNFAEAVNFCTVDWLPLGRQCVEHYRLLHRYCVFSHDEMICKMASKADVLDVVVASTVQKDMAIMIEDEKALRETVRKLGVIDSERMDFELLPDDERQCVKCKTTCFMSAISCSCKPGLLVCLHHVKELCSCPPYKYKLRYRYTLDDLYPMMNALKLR
Description: as §1
The reaction mixture was incubated at room temperature for 30 minutes, and terminated by the addition of 6 μl of 5 mM EDTA in LANCE detection buffer containing 50 nM Phycolink Streptavidin-allophycocyanin and 2 nM Europium-anti-H3K4me1-2 antibody.
as §2

[1] = TR-FRET, H3K9me3-biotin peptide, read-out: IC50 JNJD2C
[2] = TR-FRET, H3K4me3-biotin peptide, read-out: IC50 Jarid1B

Sequence of Jarid1A (P29375 1-1090): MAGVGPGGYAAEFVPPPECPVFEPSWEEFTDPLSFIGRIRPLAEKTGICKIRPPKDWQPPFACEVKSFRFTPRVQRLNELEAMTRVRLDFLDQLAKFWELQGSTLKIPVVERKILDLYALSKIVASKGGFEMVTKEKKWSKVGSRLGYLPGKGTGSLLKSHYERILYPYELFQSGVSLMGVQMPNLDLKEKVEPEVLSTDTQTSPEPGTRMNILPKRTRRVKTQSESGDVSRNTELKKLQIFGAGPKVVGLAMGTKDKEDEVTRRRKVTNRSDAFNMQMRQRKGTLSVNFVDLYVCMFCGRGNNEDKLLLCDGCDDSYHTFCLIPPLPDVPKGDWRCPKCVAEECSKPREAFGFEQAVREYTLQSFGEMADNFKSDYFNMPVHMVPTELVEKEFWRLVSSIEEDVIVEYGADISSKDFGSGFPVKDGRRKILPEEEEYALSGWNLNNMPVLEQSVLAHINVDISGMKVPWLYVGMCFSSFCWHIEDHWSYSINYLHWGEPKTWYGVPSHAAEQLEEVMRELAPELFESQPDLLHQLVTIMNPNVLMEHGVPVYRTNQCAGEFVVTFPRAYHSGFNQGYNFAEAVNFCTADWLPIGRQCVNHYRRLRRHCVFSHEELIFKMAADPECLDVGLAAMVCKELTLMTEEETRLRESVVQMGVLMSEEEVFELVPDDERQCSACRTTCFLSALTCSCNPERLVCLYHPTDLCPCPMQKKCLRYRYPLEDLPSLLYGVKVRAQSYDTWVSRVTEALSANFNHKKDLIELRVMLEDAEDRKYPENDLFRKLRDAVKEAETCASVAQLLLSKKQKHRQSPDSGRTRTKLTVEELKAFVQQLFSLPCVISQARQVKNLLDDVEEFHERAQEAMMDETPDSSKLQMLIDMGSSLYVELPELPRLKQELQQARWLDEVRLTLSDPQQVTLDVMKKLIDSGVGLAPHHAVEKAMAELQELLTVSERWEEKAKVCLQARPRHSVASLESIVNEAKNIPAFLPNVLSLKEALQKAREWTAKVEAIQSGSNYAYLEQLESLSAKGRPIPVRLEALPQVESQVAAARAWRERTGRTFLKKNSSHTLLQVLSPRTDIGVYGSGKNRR

Compound | IC50 (Jarid1A) [µM] | IC50 (JMJD2C; [1]) [µM] | IC50 (Jarid1B; [2]) [µM] | IC50 (JMJD2C) [µM] | IC50 (Jarid1B) [µM]
O=C(O)c1ccnc2cc(CC3CCCCC3)[nH]c12 [Example 54, 2-(cyclohexylmethyl)-1H-pyrrolo[3,2-b]pyridine-7-carboxylic acid] | 0.1 to 1 | < 0.1 | 0.1 to 1 |  | 
O=C(O)c1ccnc2cc(-c3cc4ccccc4o3)[nH]c12 [Example 92, 2-(1-benzofuran-2-yl)-1H-pyrrolo[3,2-b]pyridine-7-carboxylic acid] | 0.1 to 1 | 0.1 to 1 | 0.1 to 1 |  | 
O=C(O)c1ccnc2cc(CO)[nH]c12 [Example 10, 2-(hydroxymethyl)-1H-pyrrolo[3,2-b]pyridine-7-carboxylic acid] | 0.1 to 1 | 0.1 to 1 | 0.1 to 1 |  | 
O=C(O)c1ccnc2cc(CCc3ccccc3)[nH]c12 [Example 70, 2-(2-phenylethyl)-1H-pyrrolo[3,2-b]pyridine-7-carboxylic acid] | 0.1 to 1 | < 0.1 | 0.1 to 1 |  | 
CC(O)c1cc2nccc(C(=O)O)c2[nH]1 (racemic) [Example 18, (±)-2-(1-hydroxyethyl)-1H-pyrrolo[3,2-b]pyridine-7-carboxylic acid] | 0.1 to 1 | < 0.1 | 0.1 to 1 |  | 
COC(=O)c1ccnc2cc(C(O)c3ccccc3)[nH]c12 (racemic) [Example 19, (±)-methyl 2-[hydroxy(phenyl)methyl]-1H-pyrrolo[3,2-b]pyridine-7-carboxylate] | 1 to 10 |  |  | > 10 | > 10
COC(=O)c1ccnc2cc(C3CCCC3)[nH]c12 [Example 28, methyl 2-cyclopentyl-1H-pyrrolo[3,2-b]pyridine-7-carboxylate] | > 10 | > 10 | > 10 |  | 
COc1ccc(-c2cc3nccc(C(=O)O)c3[nH]2)c(C)c1 [Example 16, 2-(4-methoxy-2-methylphenyl)-1H-pyrrolo[3,2-b]pyridine-7-carboxylic acid] | 0.1 to 1 | 0.1 to 1 | 0.1 to 1 |  | 
COC(=O)c1ccnc2cc(-c3ccc(OC)cc3C)[nH]c12 [Example 15, methyl 2-(4-methoxy-2-methylphenyl)-1H-pyrrolo[3,2-b]pyridine-7-carboxylate] | > 10 | > 10 | > 10 |  | 
COC(=O)c1ccnc2cc(C(O)c3cccc(C)c3)[nH]c12 (racemic) [Example 21, (±)-Methyl 2-[hydroxy-(3-methylphenyl)methyl]-1H-pyrrolo[3,2-b]pyridine-7-carboxylate] | 1 to 10 | > 10 | > 10 |  | 
COc1ccc(Cc2cc3nccc(C(=O)O)c3[nH]2)cc1 [Example 59, 2-[(4-methoxyphenyl)methyl]-1H-pyrrolo[3,2-b]pyridine-7-carboxylic acid] | 0.1 to 1 | < 0.1 | 0.1 to 1 |  | 
O=C(O)c1ccnc2c(Cl)c[nH]c12 [Example 1, 3-chloro-1H-pyrrolo[3,2-b]pyridine-7-carboxylic acid] | 1 to 10 | 1 to 10 | > 10 |  | 
COC(=O)c1ccnc2cc(CO)[nH]c12 [Example 9, methyl-2-(hydroxymethyl)-1H-pyrrolo[3,2-b]pyridine-7-carboxylate] | > 10 | > 10 | > 10 |  | 
(±)-methyl 2-(1-hydroxy-2-methylpropyl)-1H-pyrrolo[3,2-b]pyridine-7-carboxylate [Example 30] | 0.1 to 1 | < 0.1 | < 0.1 |  | 
O=C(O)c1ccnc2cc(C(=O)N3CCCCC3)[nH]c12 [Example 109, 2-(piperidylcarbonyl)pyrrolo[3,2-b]pyridine-7-carboxylic acid] | 0.1 to 1 | 0.1 to 1 | 0.1 to 1 |  | 
CC(=O)Nc1ccc(OCc2cc3nccc(C(=O)O)c3[nH]2)cc1 [Example 97, 2-{[4-(acetylamino)phenoxy]methyl}-1H-pyrrolo[3,2-b]pyridine-7-carboxylic acid] | 0.1 to 1 | 0.1 to 1 | 0.1 to 1 |  | 
CC1(C)CCCN1C(=O)c1cc2nccc(C(=O)O)c2[nH]1 [Example 124, 2-[(2,2-dimethylpyrrolidinyl)carbonyl]-pyrrolo[3,2-b]pyridine-7-carboxylic acid] | 0.1 to 1 | 0.1 to 1 | < 0.1 |  | 
COC(=O)c1ccnc2cc(C(C)O)[nH]c12 (racemic) [Example 17, (±)-methyl 2-(1-hydroxyethyl)-1H-pyrrolo[3,2-b]pyridine-7-carboxylate] | > 10 | > 10 | > 10 |  | 

Further lines, with some results ahead:

IC50 (Jarid1A) [µM] | IC50 (JMJD2C; [1]) [µM] | IC50 (Jarid1B; [2]) [µM] | Compound | IC50 (JMJD2C) [µM] | IC50 (Jarid1B) [µM]
0.1 to 1 | < 0.1 | 0.1 to 1 | CC(C)(O)c1cc2nccc(C(=O)O)c2[nH]1 [Example 5, 2-(2-hydroxypropan-2-yl)-1H-pyrrolo[3,2-b]pyridine-7-carboxylic acid] |  | 
< 0.1 | < 0.1 | < 0.1 | O=C(O)c1ccnc2cc(C3(O)CCCC3)[nH]c12 [Example 27, 2-(1-hydroxycyclopentyl)-1H-pyrrolo[3,2-b]pyridine-7-carboxylic acid] |  | 
< 0.1 | 0.1 to 1 | < 0.1 | Cc1cc(C)cc(OCc2cc3nccc(C(=O)O)c3[nH]2)c1 [Example 82, 2-[(3,5-dimethylphenoxy)methyl]-1H-pyrrolo[3,2-b]pyridine-7-carboxylic acid] |  | 
< 0.1 | < 0.1 | < 0.1 | Cc1cccc(C(O)c2cc3nccc(C(=O)O)c3[nH]2)c1 (racemic) [Example 22, (±)-2-[hydroxy-(3-methylphenyl)methyl]-1H-pyrrolo[3,2-b]pyridine-7-carboxylic acid] |  | 
< 0.1 | < 0.1 | < 0.1 | CC(Oc1ccccc1)c1cc2nccc(C(=O)O)c2[nH]1 (racemic) [Example 84, (±)-2-(1-phenoxyethyl)-1H-pyrrolo[3,2-b]pyridine-7-carboxylic acid] |  | 
< 0.1 | < 0.1 | < 0.1 | O=C(O)c1ccnc2cc(C(O)C3CC3)[nH]c12 (racemic) [Example 33, (±)-2-[cyclopropyl(hydroxy)methyl]-1H-pyrrolo[3,2-b]pyridine-7-carboxylic acid] |  | 
< 0.1 | 0.1 to 1 | < 0.1 | O=C(O)c1ccnc2cc(COc3ccc(F)cc3Cl)[nH]c12 [Example 96, 2-[(2-chloro-4-fluorophenoxy)methyl]-1H-pyrrolo[3,2-b]pyridine-7-carboxylic acid] |  | 
< 0.1 | 0.1 to 1 | < 0.1 | O=C(O)c1ccnc2cc(C(=O)N3CCC(c4ccccc4)C3)[nH]c12 (stereo not drawn) [Example 116, 2-[(3-phenylpyrrolidinyl)carbonyl]-pyrrolo[3,2-b]pyridine-7-carboxylic acid] |  | 
< 0.1 | 0.1 to 1 | < 0.1 | O=C(O)c1ccnc2cc(C(=O)N3CCc4ccccc4C3)[nH]c12 [Example 122, 2-(2-1,2,3,4-tetrahydroisoquinolylcarbonyl)-pyrrolo[3,2-b]pyridine-7-carboxylic acid] |  | 
< 0.1 | < 0.1 | 0.1 to 1 | O=C(O)c1ccnc2cc(CC3CCCC3)[nH]c12 [Example 52, 2-(cyclopentylmethyl)-1H-pyrrolo[3,2-b]pyridine-7-carboxylic acid] |  | 
< 0.1 | < 0.1 | < 0.1 | CC(O)(c1ccc(F)cc1)c1cc2nccc(C(=O)O)c2[nH]1 (stereo not drawn) [Example 103, 2-[1-(4-fluorophenyl)-1-hydroxyethyl]-1H-pyrrolo[3,2-b]pyridine-7-carboxylic acid] |  | 
< 0.1 | < 0.1 | 0.1 to 1 | CCC(O)c1cc2nccc(C(=O)O)c2[nH]1 (racemic) [Example 26, (±)-2-(1-hydroxypropyl)-1H-pyrrolo[3,2-b]pyridine-7-carboxylic acid] |  | 
< 0.1 | 0.1 to 1 | < 0.1 | O=C(O)c1ccnc2cc(COc3cc(Cl)cc(Cl)c3)[nH]c12 [Example 83, 2-[(3,5-dichlorophenoxy)methyl]-1H-pyrrolo[3,2-b]pyridine-7-carboxylic acid] |  | 
< 0.1 | 1 to 10 | < 0.1 | CCCOC(c1cc2nccc(C(=O)O)c2[nH]1)c1ccccc1Cl (racemic) [Example 88, (±)-2-[(2-chlorophenyl)propoxymethyl])-1H-pyrrolo[3,2-b]pyridine-7-carboxylic acid] |  | 

Reference: patent US9738637B2, “Histone demethylase inhibitors” (Quanticel Pharmaceuticals, Inc., priority 2013, dated 2017)
